Experimental data from patent US20030199424A1, “Method of treatment and/or prophylaxis” (priority 2002, published 2003).
“Also recorded” adds a separate entry of the source.

Assays:
STZ-diabetic rats [1] = settings: given to rats 4 wks after induction of diabetes with STZ (Maxfield et al., 1993); cited from earlier work
STZ-diabetic rats [2] = test: Reversal protocol: AT1 antagonist from 12 wks post-STZ, morphine antinociception; settings: oral losartan 20 mg/kg/day for 4 wks commencing 12 wks post-STZ; tested at 16 wks post-STZ
Description: STZ-diabetic rats (n=18) were allocated to one of three experimental groups. Groups one and two received once-daily oral administration of antihypertensive doses of one of the AT1-antagonists, viz candesartan (2.0 mg/kg/day)or losartan (20 mg/kg/day), commencing at 12 weeks post-STZ administration (day 0). The third group (control STZ-diabetic rats) received no treatment.
The mean (±SEM) percentage maximum AUC (% Max AUC) was calculated according to the following formula: [formula]
The Mann-Whitney test was used to compare %MAX AUC values between treatment groups. The statistical significance criterion was p<0.05.

SMILES | Nerve blood flow (NBF) deficits (STZ-diabetic rats [1]) | Reduction in nerve conduction velocity (NCV) (STZ-diabetic rats [1]) | Effect on morphine's antinociceptive effects (s.c. morphine 6.1 mg/kg) (STZ-diabetic rats [2])
CCc1cc2c(c(OCc3ccc(-c4ccccc4-c4nnn[nH]4)cc3)c1)CCCC2 [ZD 8731] | significant improvements | completely reverses | –
CCCCc1nc(Cl)c(CO)n1Cc1ccc(-c2ccccc2-c2nnn[nH]2)cc1 [losartan] | – | – | preserved morphine's antinociceptive effects; also recorded: morphine sensitivity was preserved
